# In PMC3326594 (Journal of Medicinal Chemistry, 2012):
# Experiments:
# [1] = molecular target: P-gp (Homo sapiens, UniProt P08183); settings: for LE (ligand efficiency): binding free energy from IC50 per heavy atom, 310 K; for LipE (lipophilic efficiency): from pIC50 and clogP (eq 5)
# [2] = molecular target: P-glycoprotein (P-gp) (Homo sapiens, UniProt P08183); assay: Inhibition of daunorubicin efflux in multidrug resistant CCRF-CEM vcr 1000 cells; assay type: cell-based
# [3] = tested on: hERG potassium channel; settings: hERG blockers from literature; cited from earlier work
# [4] = pIC50 calcd, predicted from the clogP/pIC50 correlation line (Figure 2)
# Sequence of P-glycoprotein (P-gp) (P08183 whole entry): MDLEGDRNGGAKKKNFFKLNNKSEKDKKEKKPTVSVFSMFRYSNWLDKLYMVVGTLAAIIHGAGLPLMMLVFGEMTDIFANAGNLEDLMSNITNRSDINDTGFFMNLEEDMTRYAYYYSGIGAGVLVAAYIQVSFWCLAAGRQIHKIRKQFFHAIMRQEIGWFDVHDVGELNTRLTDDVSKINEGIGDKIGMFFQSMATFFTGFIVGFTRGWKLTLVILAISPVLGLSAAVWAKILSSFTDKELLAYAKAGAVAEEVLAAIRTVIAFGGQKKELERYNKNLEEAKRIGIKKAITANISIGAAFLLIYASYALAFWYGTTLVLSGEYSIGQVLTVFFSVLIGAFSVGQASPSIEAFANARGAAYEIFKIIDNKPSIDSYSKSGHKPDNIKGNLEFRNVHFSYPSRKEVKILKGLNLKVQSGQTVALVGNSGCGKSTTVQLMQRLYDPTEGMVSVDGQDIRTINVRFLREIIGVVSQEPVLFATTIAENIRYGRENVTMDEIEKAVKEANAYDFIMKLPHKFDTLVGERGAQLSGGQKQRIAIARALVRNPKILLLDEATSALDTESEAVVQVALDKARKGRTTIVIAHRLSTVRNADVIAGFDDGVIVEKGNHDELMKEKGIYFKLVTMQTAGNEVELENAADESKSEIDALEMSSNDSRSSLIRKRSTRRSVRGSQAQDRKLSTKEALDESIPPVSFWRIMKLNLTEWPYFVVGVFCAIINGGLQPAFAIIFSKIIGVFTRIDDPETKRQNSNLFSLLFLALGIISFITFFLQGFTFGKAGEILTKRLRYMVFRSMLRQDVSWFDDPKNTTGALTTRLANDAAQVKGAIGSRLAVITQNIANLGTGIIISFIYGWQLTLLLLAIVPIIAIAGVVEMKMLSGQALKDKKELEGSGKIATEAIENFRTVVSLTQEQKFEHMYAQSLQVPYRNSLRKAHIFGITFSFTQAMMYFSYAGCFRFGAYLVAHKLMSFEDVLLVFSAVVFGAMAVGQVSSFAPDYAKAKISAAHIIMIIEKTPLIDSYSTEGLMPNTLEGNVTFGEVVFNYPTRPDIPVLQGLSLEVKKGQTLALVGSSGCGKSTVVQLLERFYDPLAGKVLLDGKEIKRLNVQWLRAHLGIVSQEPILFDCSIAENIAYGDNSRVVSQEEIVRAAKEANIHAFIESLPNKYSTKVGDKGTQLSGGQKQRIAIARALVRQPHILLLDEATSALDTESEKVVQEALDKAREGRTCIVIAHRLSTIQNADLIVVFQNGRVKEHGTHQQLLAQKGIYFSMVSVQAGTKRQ
# Sequence of P-gp (P08183 whole entry): as above
SMILES,LE (ligand efficiency) [1],LipE (lipophilic efficiency) [1],also measured
O=C(c1ccccc1)c1ccccc1OCC(O)CN1CCCCC1 (centres unmarked) [Compound 12],0.33 kcal per heavy atom,,
O=C(c1ccccc1)c1ccccc1OCC(O)CN1CCC(O)(c2ccccc2)CC1 (centres unmarked) [Compound 19],,,"IC50 [2, 4]: 1740 nM; factor more active than equilipophilic compound 20 ([2]; pairwise comparison of IC50, 19 vs 20): ~4 fold"
CCCNCC(O)COc1ccccc1C(=O)c1ccc(C)cc1 (centres unmarked) [Compound 20],0.35 kcal per heavy atom,,
O=C(c1ccccc1)c1ccccc1OCC(O)CN1CCN(CC(O)COc2ccccc2C(=O)c2ccccc2)CC1 (centres unmarked) [Compound 23],0.23 kcal per heavy atom,,"IC50 [2, 4]: 794 nM; IC50 ([2]; pIC50 obs, observed, daunorubicin efflux inhibition): 53.7 nM; more active than equilipophilic compound 21 ([2]; pairwise comparison of IC50, 23 vs 21): about 1 order of magnitude"
"CC(=O)c1cc(C)ccc1OCC(O)CN1CCN(CC(O)COc2ccccc2C(=O)c2ccccc2)CC1 (centres unmarked) [Compound 24, 1-[2-(3-{4-[3-(2-Benzoyl-phenoxy)-2-hydroxyl-propyl]-piperazine-1-yl}-2-hydroxy-propoxy)-5-methyl-phenyl]-ethanone]",0.18 kcal per heavy atom,,
O=C(CCc1ccccc1)c1ccccc1OCC(O)CN1CCCCC1 (centres unmarked) [GPV005],0.33 kcal per heavy atom,1.84,
O=C(CCc1ccccc1)c1ccccc1OCC(O)CN1CCC(O)(c2ccccc2)CC1 (centres unmarked) [GPV062],0.30 kcal per heavy atom,,
CCOC/C=C/c1ccc(-c2nc(-c3ccc(NC(C)C)cc3)c(-c3ccc(NC(C)C)cc3)[nH]2)cc1 [ONT093],0.29 kcal per heavy atom,0.19,
COc1cc2c(cc1OC)CN(CCc1ccc(NC(=O)c3cc(OC)c(OC)cc3NC(=O)c3cnc4ccccc4c3)cc1)CC2 [Tariquidar],0.22 kcal per heavy atom,1.93,
CN(CCOc1ccc(NS(C)(=O)=O)cc1)CCc1ccc(NS(C)(=O)=O)cc1 [dofetilide],,,potency values [3]: < 10 nM
